Assay results as given in patent US12691124B2, “Methods of controlling and improving brain health” (ICAHN SCHOOL OF MEDICINE AT MOUNT SINAI, priority 2019, dated 2026).

Key:
microglia in vivo = test: TRAP of microglia from striatum and cerebellum after chronic IBET858; design: species or system mouse; settings: 30 mg/kg i.p. once daily, two weeks
Method: Cx3Cr1^CreErt2/+; Efl10a mice were orally gavaged 5 times with tamoxifen to induce the expression of gfp-labelled ribosome. Mice were intraperitoneally injected with IBET858 (30 mg/kg) or vehicle control once daily for two weeks. Four hours after either an acute (1 injection) or chronic (2 weeks) injection, mice were decapitated and used for TRAP.
To better understand how IBET858 affects microglia in their homeostatic state, translating ribosome affinity purification (TRAP) after chronic IBET858 administration was used. TRAP is ideal because it prevents the induction of immediate early and pro-inflammatory genes caused by other isolation protocols which can occlude homeostatic transcriptional profiles. Ayata et al., “Epigenetic Regulation of Brain Region-Specific Microglia Clearance Activity,” Nature Neuroscience 21:1049-1060 (2018), which is hereby incorporated by reference in its entirety. As observed in vitro, microglial lineage is maintained after chronic BET inhibition IBET858 as indicated by expression of Hexb, Fcrls, and Fcer1g in either the striatum or cerebellum (FIG. 4B). […] This is especially important because loss of these region-specific gene expression signatures is highly detrimental to brain function. Ayata et al., “Epigenetic Regulation of Brain Region-Specific Microglia Clearance Activity,” Nature Neuroscience 21:1049-1060 (2018), which is hereby incorporated by reference in its entirety. […] Therefore it is likely that BET inhibition can prevent or modulate pathological microglial activation in vivo as occurs during neurodegeneration.

BRD2 or BRD4 = test: ChIP sequencing, BRD2 or BRD4 promoter occupancy versus gene expression; type: cell-based, mouse
Method: Chromatin Immunoprecipitation with Sequencing. Primary cortical neuronal cultures were washed once with PBS then fixed for 10 minutes with a 1% formaldehyde solution in PBS with protease inhibitors (Sigma #P8340) at room temperature. Fixation was quenched adding glycine to a final concentration of 0.125M (5 minutes, room temperature). 10e6 fixed cells were resuspended in 1 ml of lysis buffer (50 mM Hepes KOH, pH7.5, 140 mM NaCl, 1 mM EDTA, 10% glycerol, 0.5% NP-40, 0.25% Triton X-100) and 10 ul of protease inhibitor cocktail (PIC). Samples were rotated for 10 minutes at 4 degrees then spun at 1350 g at 4 C for 10 minutes. Pellets were resuspended in 1 ml of lysis buffer 2 (10 mM Tris-HCl pH8.0, 200 mM NaCl, 1 mM EDTA, 0.5 mM EGTA) and 10 ul PIC.). 5e6 nuclei were sonicated in lysis buffer 3 (10 mM Tris-HCl pH8.0, 100 mM NaCl, 1 mM EDTA, 0.5 mM EGTA, 0.1% Na-Deoxicholate, 0.5% N-Lauroylsarcosine) at 4 degrees for 5 cycles of 30 seconds ON/30 seconds OFF using the Diagenode bioruptor. After, 30 ul of 10% Triton-X100 was added to each sample and then spun for 15 minutes at 20,000 g at 4 degrees. Sonication efficiency was checked by running the samples on a 2% agarose gel to confirm enrichment for fragments from 200-500 bps.
Streptavidin M-280 dynabeads were blocked with 0.5% BSA solution and coupled to 7 ug of antibody (Brd4 #Ab84778, Brd2 Bethyl #A302-583A, Pol2 Ser5 #Ab5408) for at least 8 hours at 4 degrees, rotating. Antibody-coupled beads were then added to sonicated chromatin (20e6 cells for Brd2/Brd4, 10e6 for Pol2) and incubated overnight at 4 degrees. After washing the IPs eight times with wash buffer (50 mM Hepes-KOH pH7.6, 100 mM LiCl, 1 mM EDTA, 1% NP-40, 0.7% Na-Deoxycholate) and once with TE buffer (10 mM Tris-HCl, 1 mM EDTA, 50 mM NaCl), Chromatin was eluted from magnetic beads in 200 ul elution buffer ([…] Tris-HCl pH8.0, 10 mM EDTA, 1% SDS) for 45 minutes at 65 degrees. Samples were de-crosslinked overnight at 65 degrees and proteins and RNA were removed by incubating with RNAse and proteinase k. Samples were purified using the Qiagen PCR purification kit according to the manufacturers protocol.
Samples were end-repaired using the End-IT DNA End-Repair Kit (#ER0720). After 45 minutes incubation, samples were purified using the Qiagen PCR Clean up kit as described above. Samples were adenylated using a reaction mix (200 uM dATP, 1× Klenow buffer NEB2, Klenow Fragment (3′ to 5′ exo-), NEB M0212L) and incubating at 37 degrees for 30 minutes. After, samples were purified as above except using the Minelute columns to minimize sample loss. Adapters were ligated to samples using a reaction mix containing T4 DNA ligase buffer, Solexa adapter oligo mix and 1200 units of T4 DNA ligase. The samples were incubated according to the following PCR program: 1) 20 C for 15 min, 2) 4 C for 2 h, 3) 0.1 C/sec to 16 C, 4) 16 C for 20 min, 5) 0.1 C/sec to 4 C, 6) back to step 2 for 6 cycles. Samples were purified using the Minelute kit as described above. Samples were amplified using a reaction mix containing the Phusion HF buffer, 300 uM dNTP mix, 3% DMSO, diluted Solexa primers 1.0 and 2.0, and 1 unit of Phusion polymerase. Samples were amplified according to the following program: 1) 30 sec at 98 C, 2) 18 cycles of: 10 sec at 98 C, 30 sec at 65 C, 30 sec at 72 C, 3) 5 min 72 C. Prepared samples were then sequenced on the HiSeq 2000 platform by Rockefeller's Genomic Core Facility. Bioinformatic analysis was performed by the Shen Lab. Briefly, raw sequencing data was processed by using Illumina bcl2fastq2 Conversion Software v2.17. The ChIP-seq data was first checked for quality using the various metrics generated by FastQC. Raw sequencing reads were then aligned to the mouse mm9 genome using the default settings of Bowtie (v2.2.0)87. Only uniquely mapped reads were retained, and the alignments were subsequently filtered using the SAMtools package (v0.1.19)88 to remove duplicate reads. […]

## CC(=O)N1c2ccc(-c3ccc(CN4CCCCC4)cc3)cc2[C@H](Nc2ccccc2)CC1C (stereo in doubt) [IBET858]
Microglia in vivo
  microglial lineage (Hexb, Fcrls, Fcer1g expression) in striatum or cerebellum: maintained
  regional microglial transcriptomic heterogeneity: also unaffected
  striatal microglial inflammatory genes (Ccr5, Cd180, Gpr84, Wdfy1): suppressed
BRD2 or BRD4
  displacement of BET proteins from the chromatin: displaces all three BET proteins from the chromatin
BRD2 or BRD4; 1 week IBET858, 844/1391
  down-regulated genes that are bound by Brd2 or Brd4: 61%
BRD2 or BRD4; 6 h IBET858
  genes with increased promoter occupancy of BRD2 or BRD4 that are also transcriptionally upregulated: 212 genes
  genes with reduced promoter occupancy of BRD2 or BRD4 that are also transcriptionally downregulated: 528 genes
BRD2 or BRD4; 12 h IBET858, 733/1158
  down-regulated genes that are bound by Brd2 or Brd4: 63%
BRD2 or BRD4; short-term treatment 6 h
  gene promoters with reduced BET binding: approximately 1000 gene promoters
